Publication PMC3914206

Tests used:
Type in all cases: binding
Conditions in all cases: Compound Concentration 10 µM
panel of 442 kinases [1] = molecular target: T1, panel of 442 kinases (Homo sapiens, UniProt P49840)
T1 construct: purchased KINOMEscan
Source text: (§1) We assessed the selectivity of members of this scaffold using the KINOMEscan methodology across a near comprehensive panel of 442 kinases [[18,27]].

panel of 442 kinases [2] = molecular target: T2, panel of 442 kinases (Homo sapiens, UniProt Q15375)
T2 construct: purchased KINOMEscan
T2 sequence (Q15375 28-998): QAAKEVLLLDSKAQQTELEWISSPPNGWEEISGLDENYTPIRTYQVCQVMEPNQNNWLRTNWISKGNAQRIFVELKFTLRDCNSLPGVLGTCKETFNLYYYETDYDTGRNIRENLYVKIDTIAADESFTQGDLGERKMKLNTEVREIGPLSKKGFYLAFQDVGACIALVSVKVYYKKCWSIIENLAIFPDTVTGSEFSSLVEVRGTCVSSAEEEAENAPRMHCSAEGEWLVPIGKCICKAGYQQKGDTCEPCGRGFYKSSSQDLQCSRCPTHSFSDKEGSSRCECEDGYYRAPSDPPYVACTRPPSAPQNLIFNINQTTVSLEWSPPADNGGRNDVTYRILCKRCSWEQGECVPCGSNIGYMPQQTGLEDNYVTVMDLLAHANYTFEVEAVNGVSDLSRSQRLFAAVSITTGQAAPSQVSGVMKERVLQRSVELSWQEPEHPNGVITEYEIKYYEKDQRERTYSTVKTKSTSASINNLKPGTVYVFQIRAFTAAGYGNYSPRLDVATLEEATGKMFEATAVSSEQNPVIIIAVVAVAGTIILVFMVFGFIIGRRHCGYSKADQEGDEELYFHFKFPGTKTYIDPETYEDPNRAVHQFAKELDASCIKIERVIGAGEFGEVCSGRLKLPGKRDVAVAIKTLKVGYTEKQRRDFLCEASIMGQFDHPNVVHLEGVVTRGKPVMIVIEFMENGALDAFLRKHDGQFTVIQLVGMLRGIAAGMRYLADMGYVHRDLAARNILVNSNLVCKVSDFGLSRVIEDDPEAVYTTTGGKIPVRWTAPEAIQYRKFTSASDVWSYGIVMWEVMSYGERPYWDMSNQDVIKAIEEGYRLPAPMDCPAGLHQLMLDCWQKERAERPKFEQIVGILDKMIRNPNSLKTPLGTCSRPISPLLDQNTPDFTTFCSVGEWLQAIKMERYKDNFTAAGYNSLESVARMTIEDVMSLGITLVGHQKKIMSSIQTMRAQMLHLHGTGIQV
Source text: as §1

panel of 442 kinases [3] = molecular target: T3, panel of 442 kinases (Homo sapiens, UniProt P42336, C420R)
T3 construct: purchased KINOMEscan
T3 sequence (P42336 whole entry C420R): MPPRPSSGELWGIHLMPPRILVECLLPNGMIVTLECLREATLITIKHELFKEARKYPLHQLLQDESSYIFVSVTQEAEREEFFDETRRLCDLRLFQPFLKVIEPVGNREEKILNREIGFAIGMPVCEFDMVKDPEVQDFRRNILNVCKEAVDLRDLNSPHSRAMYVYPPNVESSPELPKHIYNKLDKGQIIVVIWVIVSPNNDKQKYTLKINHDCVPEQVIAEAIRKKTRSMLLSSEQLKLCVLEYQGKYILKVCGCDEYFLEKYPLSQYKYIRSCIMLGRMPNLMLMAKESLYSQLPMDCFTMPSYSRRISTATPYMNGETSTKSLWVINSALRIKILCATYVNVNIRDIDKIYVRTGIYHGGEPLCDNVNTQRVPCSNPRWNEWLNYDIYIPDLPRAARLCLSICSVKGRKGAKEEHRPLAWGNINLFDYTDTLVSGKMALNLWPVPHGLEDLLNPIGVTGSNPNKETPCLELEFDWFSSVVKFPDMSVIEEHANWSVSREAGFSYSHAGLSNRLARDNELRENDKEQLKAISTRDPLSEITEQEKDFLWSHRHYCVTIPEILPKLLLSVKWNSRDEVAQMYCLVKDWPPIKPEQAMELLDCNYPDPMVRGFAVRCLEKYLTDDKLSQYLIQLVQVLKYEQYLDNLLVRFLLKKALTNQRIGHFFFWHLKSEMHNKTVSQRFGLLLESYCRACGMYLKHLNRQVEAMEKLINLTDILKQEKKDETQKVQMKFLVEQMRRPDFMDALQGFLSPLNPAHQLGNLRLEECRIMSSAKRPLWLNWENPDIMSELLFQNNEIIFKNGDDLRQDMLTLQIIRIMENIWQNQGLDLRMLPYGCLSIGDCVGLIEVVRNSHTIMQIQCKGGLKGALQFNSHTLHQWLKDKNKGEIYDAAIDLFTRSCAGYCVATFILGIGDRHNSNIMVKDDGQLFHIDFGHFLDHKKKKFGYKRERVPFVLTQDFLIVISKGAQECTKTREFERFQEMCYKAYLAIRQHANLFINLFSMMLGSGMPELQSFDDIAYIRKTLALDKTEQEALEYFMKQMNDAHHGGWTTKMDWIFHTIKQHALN
Source text: as §1

panel of 442 kinases [4] = molecular target: T4, panel of 442 kinases (Homo sapiens, UniProt P42336)
T4 construct: purchased KINOMEscan
T4 sequence (P42336 whole entry): as the sequence (P42336 whole entry C420R) above, with R420C counted along it
Source text: as §1

T1 sequence (P49840 whole entry): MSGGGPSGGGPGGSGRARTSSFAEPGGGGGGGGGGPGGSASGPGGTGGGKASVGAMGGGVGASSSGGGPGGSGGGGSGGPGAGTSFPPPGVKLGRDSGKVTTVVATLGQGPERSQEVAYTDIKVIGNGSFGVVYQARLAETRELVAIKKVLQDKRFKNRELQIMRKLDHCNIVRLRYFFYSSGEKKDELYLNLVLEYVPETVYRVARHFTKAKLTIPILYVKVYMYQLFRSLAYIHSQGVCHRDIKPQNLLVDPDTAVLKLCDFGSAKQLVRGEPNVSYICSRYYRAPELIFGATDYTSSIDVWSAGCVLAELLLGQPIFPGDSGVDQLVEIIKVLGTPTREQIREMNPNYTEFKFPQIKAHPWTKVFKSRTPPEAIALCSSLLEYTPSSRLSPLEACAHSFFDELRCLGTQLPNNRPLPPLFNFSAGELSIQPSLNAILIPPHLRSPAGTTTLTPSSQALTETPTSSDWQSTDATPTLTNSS

Compound | KINOMEscan: GSK3A (panel of 442 kinases [1]) | KINOMEscan: EPHA7 (panel of 442 kinases [2]) | KINOMEscan: PIK3CA(C420R) (panel of 442 kinases [3]) | KINOMEscan: PIK3CA (panel of 442 kinases [4])
COc1cc(C(=O)N2CCC(N3CCN(C)CC3)CC2)ccc1Nc1ncc2c(n1)N(C1CCCC1)c1ccccc1C(=O)N2C [Compound 25, 11-cyclopentyl-2-((2-methoxy-4-(4-(4-methylpiperazin-1-yl)piperidine-1-carbonyl)phenyl)amino)-5-methyl-5H-benzo[e]pyrimido[5,4-b][1,4]diazepin-6(11H)-one] | 100 | 99 | 100 | 100
CCOc1cc(C(=O)N2CCC(N3CCN(C)CC3)CC2)ccc1Nc1ncc2c(n1)N(C1CCCC1)c1ccccc1C(=O)N2C [Compound 26] | 100 | 100 | 99 | 100
COc1cc(C(=O)N2CCC(N3CCN(C)CC3)CC2)ccc1Nc1ncc2c(n1)N(C)c1ccccc1C(=O)N2C [15 (LRRK2-IN-1)] | 100 | 97 | 89 | 74
